We go through 82 compounds from the METLIN SMRT retention time set (Domingo-Almenara et al. 2019).

This data set is described as follows: gradient 5% acetonitrile 3 min, to 50% in 2 min, to 85% in 15 min, held 3 min, 100 µL/min. As to conditions: column: Zorbax Extend-C18 2.1 x 50 mm; eluents: water / acetonitrile, 0.1% formic acid. Summed up: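 Standards, all pure, were combined into mixtures of ~100 molecules and run at 100 μL/min on a Zorbax Extend-C18 column (2.1 × 50 mm, 1.8 μm) with water and acetonitrile, each containing 0.1% formic acid. A coupled quadrupole time-of-flight mass spectrometer operated in positive and negative ionization mode. Retention time values come from computationally picked adduct peaks, each inspected manually.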
`CCC(CC)C(=O)N1C[C@H](c2nc(-c3ccncc3)no2)[C@@H](C)C1` came in with an RP-LC retention time of 793 s.
The compound `O=C(Cc1c(F)cccc1Cl)NC1CCN(c2cc(-c3ccc(F)cc3)[nH]n2)C1` (configuration not stated) yielded an RP-LC retention time of 760 s.
With `O=S(=O)(c1cc(-c2nnc(C3CC3)o2)co1)N1CCN(C2CCCCC2)CC1` the figure was 640 s; with `Cn1cc(-c2ccccc2)cc1C(=O)N1CCOCC1`, 804 s.
`O=C(Nc1cccc(-c2nnc3n2CCCC3)c1)c1ccsc1` displayed an RP-LC retention time of 659 s.
With `O=C(Nc1cccc(-c2nnc3n2CCCC3)c1)C1CC1` the figure was 601 s; with `O=C(Cn1c(N2CCCCC2)nc2ccccc2c1=O)N1CCN(c2ccccc2)CC1`, 976 s; with `CCCCSc1cc(C)nc(N)n1`, 698 s.
With `O=S(=O)(c1ccccc1)N1CCc2nc(-c3ccc(Cl)cc3)ncc2C1`, the RP-LC retention time came out at 1170 s.
With `COc1ccc(-c2cc(C(=O)Nc3ccc(F)cc3)sn2)cc1` the figure was 1090 s; with `COC(=O)c1sccc1NC(=O)N1CCc2c([nH]c3ccccc23)C1c1ccc(OC)cc1` (configuration not stated), 1230 s; with `CC(C)N1CCN(Cc2nc(-c3ccc(N(C)Cc4ccccc4)nc3)no2)CC1`, 661 s.
`COc1ccccc1C1(CNC(=O)Nc2ccccc2F)CCOCC1` displayed an RP-LC retention time of 810 s.
As for `Cc1cc(N2CCCC2)n2nc(CN3CCN(c4ccccc4)CC3)nc2n1`, the RP-LC retention time came to 600 s.
With `CCn1c(C(=O)NCc2ccc(N(C)C)cc2)cc2c(-c3cccs3)nn(-c3ccccc3)c21` the figure was 906 s; with `CN(C)N1C(=O)c2c(Cl)c(Cl)c(Cl)c(Cl)c2C1=O`, 1080 s.
The compound `Cc1ccc(NC(=O)N2CCC3(C2)c2nc[nH]c2CCN3C)cc1` (configuration not stated) gave an RP-LC retention time of 554 s.
`O=C(c1ccoc1)N1CCCC(c2ccnc(-c3ccccc3)n2)C1` (configuration not stated) displayed an RP-LC retention time of 892 s.
With `O=C(Cc1nc(-c2cnccn2)n[nH]1)NCc1ccccc1` the figure was 583 s.
As to `CCc1ccc(NC(=O)Cn2cnc3nc(N4CCCC(C(=O)NC)C4)sc3c2=O)cc1` (configuration not stated), the RP-LC retention time was 694 s.
In turn, `CCNc1ncnc2sc3c(c12)CCN(C(=O)c1ccncc1)C3` gave an RP-LC retention time of 591 s.
As for `CN(C)CCNC(=O)C1CCc2sc(C(=O)N3CCOCC3)cc2C1` (configuration not stated), the RP-LC retention time worked out at 551 s.
Turning to `O=C(CCC1CCCC1)N1CCN(c2nnc3ccc(Cl)cn23)CC1`, the RP-LC retention time is 832 s.
`Cc1ccsc1C(=O)Nc1ccc(-c2nc(Cn3cccn3)c(C)o2)cc1` came in with an RP-LC retention time of 884 s.
The compound `CCCCNC(=O)C(CC)n1nc(C)c2nn(-c3ccccc3)c(C)c2c1=O` (configuration not stated) displayed an RP-LC retention time of 934 s.
Turning to `CN1C(=O)c2cc(S(=O)(=O)Nc3cccc(F)c3)ccc2Oc2cccnc21`, the RP-LC retention time came out at 879 s.
Consider `CC(C)c1noc(-c2ccnc(-n3cnc(C(=O)NCc4ccco4)c3)c2)n1`, for which the RP-LC retention time came to 809 s.
In the case of `CCOC(=O)N1CCN(c2nc(F)c3c(c2F)S(=O)(=O)CCN3Cc2ccco2)CC1`, the RP-LC retention time was 962 s.
With `CC1=C(C(=O)NCc2ccc3c(c2)OCO3)C2(CCN(Cc3ccccc3)CC2)OC1=O` the figure was 669 s; with `Cc1ccccc1S(=O)(=O)N1CCc2c(c(-c3nnc(-c4ccc(F)cc4)o3)nn2C)C1`, 955 s; with `CC(C)NC(=O)C1CCC(=O)N1C1CCN(C(=O)C2CCC2)CC1` (configuration not stated), 584 s.
The compound `COc1ccc(-c2nnc(-c3ccc(C)c(S(=O)(=O)N4CCC(C)CC4)c3)o2)cc1OC` registered an RP-LC retention time of 1150 s.
`COCCn1c(CC2CCN(C(=O)c3ccc(C)s3)C2)nc2cccnc21` (configuration not stated): the RP-LC retention time came to 604 s.
For the compound `O=C(c1cc(Br)ccc1Cl)N1CCN(c2ccc(-n3ccnc3)nn2)CC1`, the RP-LC retention time stood at 575 s.
As for `CC(C)n1cnc2cc(CNC(=O)Cc3cccs3)ccc21`, the RP-LC retention time stood at 600 s.
The compound `COc1ccccc1-c1noc(CCn2nc(-c3ccc4c(c3)OCO4)ccc2=O)n1` returned an RP-LC retention time of 802 s.
As to `CCOc1cc(=O)n2c(c1C(=O)Nc1ccc(Cl)c(C)c1)CCCC2`, the RP-LC retention time amounted to 829 s.
The compound `Cc1cc2c(=O)n(CC(=O)Nc3cccc(C(F)(F)F)c3)ccc2s1` returned an RP-LC retention time of 886 s.
For `COc1cccc(C(=O)N2C[C@@H]3C[C@H]2C[C@@H]3NC(=O)c2cccs2)c1OC`, the RP-LC retention time came to 698 s.
With `O=C(NCCN1CCOCC1)C1CCN(c2cnc(N3CCSCC3)nc2)CC1` the figure was 590 s.
For `COc1ccc(Nc2ncccc2S(N)(=O)=O)cc1OC`, the RP-LC retention time stood at 666 s.
For `Cc1nnc2cc(N3CCN(Cc4ccc(C(C)C)cc4)CC3)cnn12`, the RP-LC retention time was 613 s.
For `CCOc1ccccc1N1CCN(Cc2nc3nc(C)cc(N4CCCC4)n3n2)CC1`, the RP-LC retention time was 627 s.
`CSc1nc(N2CCCC2)c2cnn(CCNC(=O)c3cc(-c4ccccc4)n[nH]3)c2n1`: the RP-LC retention time turned out to be 761 s.
The compound `CC(=O)N1CCC([C@@H]2CN(C(=O)C3(C)CCCCC3)C[C@H]2CO)CC1` gave an RP-LC retention time of 631 s.
`COc1ccc(C2=Nc3ccccc3N(CC(=O)Nc3cc(OC)ccc3OC)C(=O)C2)cc1` gave an RP-LC retention time of 1020 s.
With `O=C(NCCCCCCNC(=O)ON=C1CCCCC1)ON=C1CCCCC1`, the RP-LC retention time amounted to 926 s.
For `O=C(CNC(=O)c1ccccc1)Nc1nc2ccccc2[nH]1`, the RP-LC retention time stood at 598 s.
In the case of `O=C1CCCCC(C(=O)N2CCOCC2)N1` (configuration not stated), the RP-LC retention time was 575 s.
In turn, `CCCNC(=O)CCc1nc2ccccc2n(CC(=O)NCc2ccc(F)cc2)c1=O` came in with an RP-LC retention time of 750 s.
With `O=C(C1=CN(c2ccc3c(c2)CCC3)c2ccccc2S1(=O)=O)N1CCOCC1`, the RP-LC retention time is 850 s.
With `CCOC(=O)Cn1nc(-c2nc(-c3ccc(Cl)cc3)no2)ccc1=O` the figure was 1040 s.
In the case of `COc1ccc(C(=O)Nc2cnn(C)c(=O)c2N2CCOCC2)cc1Cl`, the RP-LC retention time is 784 s.
With `O=C(O)[C@@H]1OCC(=O)N(C2CC2)[C@H]1c1ccccc1` the figure was 648 s; with `Cc1nnc2ccc(-c3noc(-c4ccccc4)n3)cn12`, 867 s; with `CCc1nnc(-c2ccc(S(=O)(=O)N3CCC(C)CC3)o2)o1`, 920 s.
Consider `CCC(C)NC(=O)c1nnc(-c2ccc(S(=O)(=O)N3CCOCC3)cc2)o1` (configuration not stated), for which the RP-LC retention time amounted to 787 s.
As for `O=C(Cc1cccs1)N(c1ccc(Br)cc1)C1C=CS(=O)(=O)C1` (configuration not stated), the RP-LC retention time is 833 s.
`Cn1nccc1-c1cccc(-c2noc(-c3cc(F)ccc3Cl)n2)c1` yielded an RP-LC retention time of 1190 s.
For the compound `CCCCC(=O)N1CCN(c2nc3ccccc3nc2C(F)(F)F)CC1`, the RP-LC retention time was determined as 1080 s.
Turning to `Cn1c(=O)c2c(ncn2CC(=O)Nc2nccs2)n(C)c1=O`, the RP-LC retention time is 576 s.
Consider `CC(NC(=O)C1CCN(c2cnc(N3CCCC3)nc2)CC1)c1ccc(F)cc1` (configuration not stated), for which the RP-LC retention time was determined as 699 s.
As for `O=C(CN1CCN(Cc2ccccc2F)C1=O)NCCc1cccs1`, the RP-LC retention time turned out to be 778 s.
`CCNc1nc(NC(C)C)nc(-c2ccncc2)n1` came in with an RP-LC retention time of 733 s.
With `COc1ccc(NC(=O)NC2CCN(c3cc(N4CCCC4)cnn3)C2)cc1F` (configuration not stated) the figure was 625 s; with `Cc1ccc(-c2ccc(-n3nc(C)c(S(=O)(=O)N4CCCC4)c3C)nn2)cc1`, 989 s.
As to `Cc1cccc(-c2nc3cnccn3c2NCCC(=O)NCC(C)C)c1`, the RP-LC retention time was found to be 672 s.
As to `CCOC(=O)C1CCCN(C(=O)C2c3cc(OC)c(OC)cc3C(=O)N(C)C2c2cccs2)C1` (configuration not stated), the RP-LC retention time came out at 787 s.
With `CCN(CC)CC(C)(C)C(=O)/C=C/c1ccc(C)cc1` the figure was 684 s; with `COC1C(=O)N(c2cccc(F)c2)C12CCN(C(=O)Nc1ccccc1)CC2` (configuration not stated), 878 s; with `COC(=O)c1cc(S(=O)(=O)N2CCCC2C(=O)Nc2cccc(OC)c2)cn1C` (configuration not stated), 826 s.
In turn, `CCC(C)N(CC(=O)N(Cc1ccco1)CC1CCCO1)C(=O)c1ccccc1OC` (configuration not stated) gave an RP-LC retention time of 805 s.
The compound `Cc1ccc(C)c(NC(=O)Cn2c(N3CCCC3)nc(C)cc2=O)c1` gave an RP-LC retention time of 656 s.
`C=CCn1nc(C)c(-c2cc(C(=O)O)[nH]n2)c1C` yielded an RP-LC retention time of 605 s.
Compound `CC(=O)Nc1ccc(Cc2nc(-c3cccc(-c4ccn[nH]4)c3)no2)cc1` showed an RP-LC retention time of 798 s.
Compound `O=C(NCCCO)C(=O)NCCc1ccc(Cl)cc1` showed an RP-LC retention time of 698 s.
`O=C(NC1CC1)[C@@H]1C[C@H](Oc2cccnc2)CN1C(=O)c1cccs1` returned an RP-LC retention time of 574 s.
In turn, `Cc1ccc(CN2N=C(C(=O)N3CCC(C)CC3)S(=O)(=O)c3ccccc32)cc1` displayed an RP-LC retention time of 1060 s.
`COc1ccc(NC(=O)C2CCN(C(=O)C3Sc4ccccc4NC3=O)CC2)cc1OC` (configuration not stated) displayed an RP-LC retention time of 692 s.
Consider `Cn1cc(-c2ccc(F)cc2)cc1C(=O)NCCN1CCCCC1`, for which the RP-LC retention time was found to be 672 s.
With `Cc1ccc(-c2csc(NC(=O)c3ccc4c(c3)OCO4)n2)cc1` the figure was 1060 s.
For the compound `CC(C)NC(=O)c1ccc2c(c1)CCN2C(=O)C1CC1`, the RP-LC retention time came to 808 s.
